According to patent US12419858B2, “Salt of terphenyl compound” (Taiho Pharmaceutical Co., Ltd., priority 2019, dated 2025):

Key:
[1] = Solid stability test (accelerated test); details: for Purity, variation (Y) − (X) / Total mass of analogous substance, variation (Y) − (X): 4 weeks at 60° C. sealed versus before storage; for solid stability (in words): 4 weeks at 60° C.; for solid stability (in words) / Purity, 4 weeks after storage at 60° C. on sealed condition (Y) / Total mass of analogous substance, 4 weeks after storage at 60° C. on sealed condition (Y): sealed; for Purity, 4 weeks after storage at 60° C. on sealed condition (Y) / Total mass of analogous substance, 4 weeks after storage at 60° C. on sealed condition (Y) / Purity, before storage (X) / Total mass of analogous substance, before storage (X): HPLC; for Purity, 4 weeks after storage at 60° C. on sealed condition (Y) / Total mass of analogous substance, 4 weeks after storage at 60° C. on sealed condition (Y): 4 weeks at 60° C./ambient humidity
Experimental: Mass of analogous substance in the sample solution was measured by HPLC analysis.

[2] = Pharmacokinetic (PK) studies in rats
Experimental: Each drug was administered to the animal at a dose of 32 mg/5 mL/kg.

[3] = Moisture absorption/desorption test; details: 25° C.; for hygroscopicity / moisture absorption-desorption behaviour (in words): 5% RH to 95% RH and back; for weight change at maximum (moisture absorption/desorption): relative humidity from 5 to 95%
Experimental: Moisture absorption/desorption test was carried out on the following test conditions. A dedicated quartz holder was filled with about 10 mg of sample, and a weight of the sample at each humidity was measured and recorded in a continuous manner under the following conditions.

Row | Compound | Purity, variation (Y) − (X) [1] | Total mass of analogous substance, variation (Y) − (X) [1] | solid stability (in words) [1] | solid stability (in words) ([1]; listed as benzoate) | Purity, 4 weeks after storage at 60° C. on sealed condition (Y) [1] [%] | Total mass of analogous substance, 4 weeks after storage at 60° C. on sealed condition (Y) [1] [%] | Purity, before storage (X) [1] [%] | Total mass of analogous substance, before storage (X) [1] [%] | Cmax ([2]; rats, dose of 32 mg/5 mL/kg) [nM] | Tmax ([2]; rats, dose of 32 mg/5 mL/kg) [h] | hygroscopicity / moisture absorption-desorption behaviour (in words) [3] | weight change at maximum (moisture absorption/desorption) [3] | Cmax ([2]; rat, in vivo, 32 mg/kg) [nM] | Tmax ([2]; rat, in vivo, 32 mg/kg) [h] | hygroscopicity / moisture absorption-desorption behaviour (in words) ([3]; listed as free form) | AUC ([2]; rats, dose of 32 mg/5 mL/kg) [µM·h]
1 | CC(C)(O)Cc1ccc(-c2ccc(C(=O)N3CC[C@H](N)C3)cc2-c2ccc(C#N)c(F)c2)c(F)c1.O=C(O)c1ccccc1 [benzoic acid salt of Compound A, benzoic acid salt of 4-[5-[(3S)-3-aminopyrrolidine-1-carbonyl]-2-[2-fluoro-4-(2-hydroxy-2-methyl-propyl)phenyl]phenyl]-2-fluoro-benzonitrile] | +0.13% | −0.13% | almost no analogous substance was generated | stable | 98.06 | 1.94 | 97.93 | 2.07 | 2680 | 2.7 | less adsorptive and/or disorptive of moisture | +0.7 % w/w |  |  |  | 
2 | CC(C)(O)Cc1ccc(-c2ccc(C(=O)N3CC[C@H](N)C3)cc2-c2ccc(C#N)c(F)c2)c(F)c1 [free form of Compound A, 4-[5-[(3S)-3-aminopyrrolidine-1-carbonyl]-2-[2-fluoro-4-(2-hydroxy-2-methyl-propyl)phenyl]phenyl]-2-fluoro-benzonitrile] | −0.37% | +0.37% | poor solid stability |  | 98.15 | 1.85 | 98.52 | 1.48 |  |  | had the characteristic of channel hydrate | about +5.6 % w/w | 2560 | 4 | characteristic of hygroscopicity | 
3 | C/C=C/C=C/C(=O)O.CC(C)(O)Cc1ccc(-c2ccc(C(=O)N3CC[C@H](N)C3)cc2-c2ccc(C#N)c(F)c2)c(F)c1 [sorbic acid salt of Compound A, sorbic acid salt of 4-[5-[(3S)-3-aminopyrrolidine-1-carbonyl]-2-[2-fluoro-4-(2-hydroxy-2-methyl-propyl)phenyl]phenyl]-2-fluoro-benzonitrile] | −0.64% | +0.64% | stable |  | 97.99 | 2.01 | 98.63 | 1.37 | 2030 | 2.3 | less adsorptive and/or disorptive of moisture | +1.9 % w/w |  |  |  | 11.64
